The values that follow come from patent US12503475B2 (Centessa Pharmaceuticals (UK) Limited, priority 2020, dated 2025).

For the experiment, the target named is T1, human orexin type 2 receptor (hOX2R) (Homo sapiens, UniProt O43614).
T1 construct: expressed in transfected cells
T1 sequence (O43614 1-444): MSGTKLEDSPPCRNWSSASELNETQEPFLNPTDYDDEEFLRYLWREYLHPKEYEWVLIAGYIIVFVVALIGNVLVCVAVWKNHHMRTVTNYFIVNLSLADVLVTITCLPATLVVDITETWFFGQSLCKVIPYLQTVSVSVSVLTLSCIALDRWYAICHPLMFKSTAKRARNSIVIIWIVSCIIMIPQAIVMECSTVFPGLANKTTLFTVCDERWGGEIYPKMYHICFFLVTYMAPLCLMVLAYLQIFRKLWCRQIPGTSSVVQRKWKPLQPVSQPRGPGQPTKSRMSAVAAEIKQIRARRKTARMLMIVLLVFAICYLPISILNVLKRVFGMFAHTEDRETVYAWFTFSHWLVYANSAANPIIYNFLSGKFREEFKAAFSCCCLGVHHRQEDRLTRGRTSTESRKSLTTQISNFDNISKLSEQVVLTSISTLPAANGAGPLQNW
Briefly: Measurement of orexin type 2 receptor agonist activity (FLIPR calcium fluorescence). Conditions: CHO cells expressing hOX2R, FLIPR calcium fluorescence; for EC50: read-out: hOx2 pEC50 (converted); for Emax: CHO, read-out: hOx2 Emax (%). It counts as cell-based. A digest of the protocol:
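Agonism was read as fluorescence in cells stably expressing human OX2R. E. is the response at 10 μM relative to orexin A as full agonist (100%).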

In the case of `CN(C)S(=O)(=O)N[C@@H]1[C@H](Cc2cc(F)cc(-c3cccc(F)c3)c2F)N(C(=O)[C@H]2CCO2)CC12CC2` [Compound 124, 1-fluoro-N-((6S,7S)-5-((R)-oxetane-2-carbonyl)-6-((2,3′,5-trifluoro-[1,1′-biphenyl]-3-yl)methyl)-5-azaspiro[2.4]heptan-7-yl)-N,N-dimethylsulfuric diamide], the EC50 was 0.0794 to 1 nM and the Emax was in the range of 80 to 90%.
`CS(=O)(=O)N[C@@H]1[C@H](Cc2cccc(-c3ccccc3)c2F)N(C(=O)N2CCC2)CC12CC2` [Compound 35, N-((6S,7S)-5-(azetidine-1-carbonyl)-6-((2-fluoro-[1,1′-biphenyl]-3-yl)methyl)-5-azaspiro[2.4]heptan-7-yl)methanesulfonamide]: the EC50 was 1 to 10 nM and the Emax fell in the range of 90 to 100%.
Take `[2H]c1c([2H])c([2H])c(-c2cccc(C[C@H]3[C@@H](NS(=O)(=O)CF)C4(CC4)CN3C(=O)[C@H]3CCO3)c2F)c([2H])c1[2H]` [Compound 365, 1-fluoro-N-((6S,7S)-6-((2-fluoro-[1,1′-biphenyl]-3-yl-2′,3′,4′,5′,6′-d5)methyl)-5-((R)-oxetane-2-carbonyl)-5-azaspiro[2.4]heptan-7-yl)methanesulfonamide]: the EC50 was 1 to 10 nM and the Emax fell in the range of 90 to 100%.
For `CCS(=O)(=O)NC1C(Cc2cccc(-c3ccccc3)c2)N(C(=O)OC)CC12CC2` (racemic) [Compound 6, methyl 6-([1,1′-biphenyl]-3-ylmethyl)-7-(ethylsulfonamido)-5-azaspiro[2.4]heptane-5-carboxylate], the EC50 was 100 to 1000 nM and the Emax was 70 to 80%.
Take `CC(C)(F)S(=O)(=O)N[C@@H]1[C@H](Cc2cccc(-c3ccccc3)c2F)N(C(=O)[C@H]2CCO2)CC12CC2` [Compound 398, 2-fluoro-N-((6S,7S)-6-((2-fluoro-[1,1′-biphenyl]-3-yl)methyl)-5-((R)-oxetane-2-carbonyl)-5-azaspiro[2.4]heptan-7-yl)propane-2-sulfonamide]: the EC50 is 1 to 10 nM and the Emax is 90 to 100%.
Take `COC[C@@H](C)N(C)C(=O)N1CC2(CC2)[C@H](NS(C)(=O)=O)[C@@H]1Cc1cccc(-c2ccccc2)c1F` [Compound 317, (6S,7S)-6-((2-fluoro-[1,1′-biphenyl]-3-yl)methyl)-N-((R)-1-methoxypropan-2-yl)-N-methyl-7-(methylsulfonamido)-5-azaspiro[2.4]heptane-5-carboxamide]: the EC50 was 1 to 10 nM and the Emax was in the range of 90 to 100%.
For the molecule `O=C(NCC(F)F)N1CC2(CC2)[C@H](NS(=O)(=O)C(F)F)[C@@H]1Cc1cccc(-c2ccccc2)c1F` [Compound 165, (6S,7S)-N-(2,2-difluoroethyl)-7-((difluoromethyl)sulfonamido)-6-((2-fluoro-[1,1′-biphenyl]-3-yl)methyl)-5-azaspiro[2.4]heptane-5-carboxamide], the EC50 is 1 to 10 nM and the Emax was in the range of 90 to 100%.
For the molecule `CS(=O)(=O)NC1C(Cc2cccc(-c3ccccc3)c2)N(C(=O)C(F)(F)F)CC12CC2` (racemic) [Compound 4, N-(6-([1,1′-biphenyl]-3-ylmethyl)-5-(2,2,2-trifluoroacetyl)-5-azaspiro[2.4]heptan-7-yl)methanesulfonamide], the EC50 was 100 to 1000 nM and the Emax lay in the range of 60 to 70%.
On to `CS(=O)(=O)NC1C(Cc2cccc(-c3cc(F)cc(F)c3)c2F)N(C(=O)C2CCC2)CC12CC2` (racemic) [Compound 29, N-(5-(cyclobutanecarbonyl)-6-((2,3′,5′-trifluoro-[1,1′-biphenyl]-3-yl)methyl)-5-azaspiro[2.4]heptan-7-yl)methanesulfonamide], for which the EC50 is 0.0794 to 1 nM and the Emax was in the range of 90 to 100%.
For `C[C@@H](NC(=O)N1CC2(CC2)[C@H](NS(=O)(=O)CF)[C@@H]1Cc1cccc(-c2ccccc2)c1F)C(F)(F)F` [Compound 209, (6S,7S)-6-((2-fluoro-[1,1′-biphenyl]-3-yl)methyl)-7-((fluoromethyl)sulfonamido)-N-((R)-1,1,1-trifluoropropan-2-yl)-5-azaspiro[2.4]heptane-5-carboxamide] the same measures were 0.0794 to 1 nM and 90 to 100%.
For `N#CC1(C(=O)N2CC3(CC3)[C@H](NS(=O)(=O)C(F)F)[C@@H]2Cc2cccc(-c3ccccc3)c2F)CCC1` [Compound 403] the same measures were 1 to 10 nM and 90 to 100%.
For the molecule `CCNC(=O)N1CC2(CC2)C(NS(=O)(=O)CF)C1Cc1cccc(-c2ccccc2)c1F` (racemic) [Compound 109, N-ethyl-6-((2-fluoro-[1,1′-biphenyl]-3-yl)methyl)-7-((fluoromethyl)sulfonamido)-5-azaspiro[2.4]heptane-5-carboxamide], the EC50 is 0.0794 to 1 nM and the Emax is 90 to 100%.
In the case of `[2H]C([2H])([2H])c1cccc(-c2cccc(C[C@H]3[C@@H](NS(=O)(=O)C(F)F)C4(CC4)CN3C(=O)[C@H]3CCO3)c2F)c1` [Compound 199, 1,1-difluoro-N-((6S,7S)-6-((2-fluoro-3′-(methyl-d3)-[1,1′-biphenyl]-3-yl)methyl)-5-((R)-oxetane-2-carbonyl)-5-azaspiro[2.4]heptan-7-yl)methanesulfonamide], the EC50 was 0.0794 to 1 nM and the Emax lay in the range of 90 to 100%.
With `CS(=O)(=O)NC1C(Cc2cccc(-c3ccccc3)c2)N(C(=O)[C@H]2C[C@H](F)C2)CC12CC2` (mixture of isomers) [Compound 49, N-(6-([1,1′-biphenyl]-3-ylmethyl)-5-((1r,3r)-3-fluorocyclobutane-1-carbonyl)-5-azaspiro[2.4]heptan-7-yl)methanesulfonamide], the EC50 was 1 to 10 nM and the Emax was 90 to 100%.
On to `CS(=O)(=O)N[C@@H]1[C@H](Cc2cc(F)cc(-c3ccccc3)c2F)N(C(=O)[C@H]2CCO2)CC12CC2` [Compound 59, N-((6S,7S)-6-((2,5-difluoro-[1,1′-biphenyl]-3-yl)methyl)-5-((R)-oxetane-2-carbonyl)-5-azaspiro[2.4]heptan-7-yl)methanesulfonamide], for which the EC50 was 1 to 10 nM and the Emax fell in the range of 90 to 100%.
For the molecule `O=C([C@H]1CCO1)N1CC2(CC2)[C@H](NS(=O)(=O)CF)[C@@H]1Cc1cccc(-c2ccccc2)c1F` [Compound 93, 1-fluoro-N-((6S,7S)-6-((2-fluoro-[1,1′-biphenyl]-3-yl)methyl)-5-((R)-oxetane-2-carbonyl)-5-azaspiro[2.4]heptan-7-yl)methanesulfonamide], the EC50 was 0.0794 to 1 nM and the Emax was 90 to 100%.
Regarding `CS(=O)(=O)N[C@@H]1[C@H](Cc2cccc(-c3ccccc3)c2)N(C(=O)[C@H](O)C(F)F)CC12CC2` [Compound 70, N-((6S,7S)-6-([1,1′-biphenyl]-3-ylmethyl)-5-((S)-3,3-difluoro-2-hydroxypropanoyl)-5-azaspiro[2.4]heptan-7-yl)methanesulfonamide], the EC50 was 1 to 10 nM and the Emax lay in the range of 90 to 100%.
Turning to `COC1(CNC(=O)N2CC3(CC3)[C@H](NS(=O)(=O)C(F)F)[C@@H]2Cc2cccc(-c3ccccc3)c2F)CC1` [Compound 215, (6S,7S)-7-((difluoromethyl)sulfonamido)-6-((2-fluoro-[1,1′-biphenyl]-3-yl)methyl)-N-((1-methoxycyclopropyl)methyl)-5-azaspiro[2.4]heptane-5-carboxamide], the EC50 is 0.0794 to 1 nM and the Emax lay within 90 to 100%.
As to `O=C(NCC1(F)CC1)N1CC2(CC2)[C@H](NS(=O)(=O)CF)[C@@H]1Cc1cc(F)cc(-c2ccccc2)c1F` [Compound 228, (6S,7S)-6-((2,5-difluoro-[1,1′-biphenyl]-3-yl)methyl)-N-((1-fluorocyclopropyl)methyl)-7-((fluoromethyl)sulfonamido)-5-azaspiro[2.4]heptane-5-carboxamide], the EC50 is 1 to 10 nM and the Emax fell in the range of 90 to 100%.
For the molecule `CC(C#N)NC(=O)N1CC2(CC2)[C@H](NS(C)(=O)=O)[C@@H]1Cc1cccc(-c2ccccc2)c1F` (stereo partly drawn) [Compound 341, (6S,7S)-N-(1-cyanoethyl)-6-((2-fluoro-[1,1′-biphenyl]-3-yl)methyl)-7-(methylsulfonamido)-5-azaspiro[2.4]heptane-5-carboxamide], the EC50 is 0.0794 to 1 nM and the Emax lay in the range of 90 to 100%.
Consider `CC(C)S(=O)(=O)N[C@@H]1[C@H](Cc2cc(F)cc(-c3cc(F)cc(F)c3)c2F)N(C(=O)[C@H]2CCO2)CC12CC2` [Compound 395, N-((6S,7S)-5-((R)-oxetane-2-carbonyl)-6-((2,3′,5,5′-tetrafluoro-[1,1′-biphenyl]-3-yl)methyl)-5-azaspiro[2.4]heptan-7-yl)propane-2-sulfonamide], for which the EC50 is 0.0794 to 1 nM and the Emax lay in the range of 90 to 100%.
For the molecule `CC(C)S(=O)(=O)N[C@@H]1[C@H](Cc2cccc(-c3ccccc3)c2)N(C(=O)[C@H]2CCO2)CC12CC2` [Compound 114, N-((6S,7S)-6-([1,1′-biphenyl]-3-ylmethyl)-5-((R)-oxetane-2-carbonyl)-5-azaspiro[2.4]heptan-7-yl)propane-2-sulfonamide], the EC50 is 1 to 10 nM and the Emax lay within 80 to 90%.
The matching figures for `CC1(CNC(=O)N2CC3(CC3)[C@H](NS(C)(=O)=O)[C@@H]2Cc2cccc(-c3ccccc3)c2F)COC1` [Compound 322, (6S,7S)-6-((2-fluoro-[1,1′-biphenyl]-3-yl)methyl)-N-((3-methyloxetan-3-yl)methyl)-7-(methylsulfonamido)-5-azaspiro[2.4]heptane-5-carboxamide]: 0.0794 to 1 nM and 90 to 100%.

The Emax is the size of the effect at its maximum, as opposed to the concentration needed.
